Results reported in PubChem BioAssay AID328 (DTP/NCI, 2004).
“And” between values parts separate entries of the source, which are not always exact repeats. Equal values may be shown once. Inconclusive results and toxic doses are left out.

System: BDF1 mice, P388 leukemia ip, median survival T/C
Experiment: NCI In Vivo Anticancer Drug Screen. Data for tumor model P388 Leukemia (intraperitoneal) in B6D2F1 (BDF1) mice
Conditions: endpoint: median survival time, higher = longer survival
Summary of the method: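 Survival ratio, drug arm over vehicle arm, in mice with a transplanted tumour.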

[1] = dose: 25.0 mg/kg/injection, schedule: Q01DX009 (ip), vehicle: saline
[2] = dose: 50.0 mg/kg/injection, schedule: Q01DX009 (ip), vehicle: saline
[3] = dose: 100.0 mg/kg/injection, schedule: Q04DX003 (ip), vehicle: saline with Tween-80
[4] = dose: 200.0 mg/kg/injection, schedule: Q04DX003 (ip), vehicle: saline with Tween-80
[5] = dose: 400.0 mg/kg/injection, schedule: Q04DX003 (ip), vehicle: saline with Tween-80
[6] = dose: 50.0 mg/kg/injection, schedule: Q01DX001 (ip), vehicle: saline with Tween-80
[7] = dose: 100.0 mg/kg/injection, schedule: Q01DX009 (ip), vehicle: saline with Tween-80
[8] = dose: 200.0 mg/kg/injection, schedule: Q01DX009 (ip), vehicle: saline with Tween-80
[9] = dose: 25.0 mg/kg/injection, schedule: Q01DX009 (ip), vehicle: saline with Tween-80
[10] = dose: 50.0 mg/kg/injection, schedule: Q01DX009 (ip), vehicle: saline with Tween-80
[11] = dose: 200.0 mg/kg/injection, schedule: Q04DX002 (ip), vehicle: saline with Tween-80
[12] = dose: 100.0 mg/kg/injection, schedule: Q01DX001 (ip), vehicle: saline with Tween-80
[13] = dose: 200.0 mg/kg/injection, schedule: Q01DX001 (ip), vehicle: saline with Tween-80
[14] = dose: 200.0 mg/kg/injection, schedule: Q01DX009 (ip), vehicle: saline
[15] = dose: 100.0 mg/kg/injection, schedule: Q04DX003 (ip), vehicle: Klucel (hydroxypropylcellulose) (HPC)
[16] = dose: 200.0 mg/kg/injection, schedule: Q04DX003 (ip), vehicle: Klucel (hydroxypropylcellulose) (HPC)
[17] = dose: 400.0 mg/kg/injection, schedule: Q04DX003 (ip), vehicle: Klucel (hydroxypropylcellulose) (HPC)

## Oc1cccnc1CN1CCCCC1
dose: 6.25 mg/kg/injection, schedule: Q01DX009 (ip), vehicle: saline
  T/C: 103 % of control
dose: 12.5 mg/kg/injection, schedule: Q01DX009 (ip), vehicle: saline
  T/C: 111 % of control
[1]
  T/C: 107 % of control
[2]
  T/C: 88 % of control

## CC(=O)c1c(-c2ccccc2)noc1C
[3]
  T/C: 98 % of control
[4]
  T/C: 90 % of control
[5]
  T/C: 100 % of control

## CC(=O)Nc1cc(OC(C)=O)n(-c2ccccc2)n1
dose: 87.5 mg/kg/injection, schedule: Q01DX009 (ip), vehicle: saline with Tween-80
  T/C: 97 % of control
dose: 175.0 mg/kg/injection, schedule: Q01DX009 (ip), vehicle: saline with Tween-80
  T/C: 86 % of control
dose: 350.0 mg/kg/injection, schedule: Q01DX009 (ip), vehicle: saline with Tween-80
  T/C: 98 % of control

## OC1OC2COC(c3ccccc3)OC2C(O)C1O (stereo not drawn)
dose: 75.0 mg/kg/injection, schedule: Q01DX009 (ip), vehicle: saline with Tween-80
  T/C: 107 % of control
dose: 150.0 mg/kg/injection, schedule: Q01DX009 (ip), vehicle: saline with Tween-80
  T/C: 94 % of control
dose: 300.0 mg/kg/injection, schedule: Q01DX009 (ip), vehicle: saline with Tween-80
  T/C: 91 % of control

## Cc1ccc(S(=O)(=O)OCCN(CCOS(=O)(=O)c2ccc(C)cc2)c2ccc(F)cc2)cc1
dose: 29.3 mg/kg/injection, schedule: Q01DX009 (ip), vehicle: other
  T/C: 190 % of control
dose: 44.0 mg/kg/injection, schedule: Q01DX009 (ip), vehicle: other
  T/C: 213 % of control
dose: 66.0 mg/kg/injection, schedule: Q01DX009 (ip), vehicle: other
  T/C: 245 % of control and 272 % of control
dose: 66.0 mg/kg/injection, schedule: Q04DX003 (ip), vehicle: saline sonified
  T/C: 105 % of control
dose: 100.0 mg/kg/injection, schedule: Q04DX003 (ip), vehicle: saline sonified
  T/C: 100 % of control
dose: 150.0 mg/kg/injection, schedule: Q04DX003 (ip), vehicle: saline sonified
  T/C: 105 % of control
dose: 200.0 mg/kg/injection, schedule: Q01DX009 (ip), vehicle: other
  T/C: 113 % of control
dose: 200.0 mg/kg/injection, schedule: Q04DX003 (ip), vehicle: other
  T/C: 154 % of control
dose: 400.0 mg/kg/injection, schedule: Q04DX003 (ip), vehicle: other
  T/C: 150 % of control

## Cc1c(C)c2c(N)c3ccccc3nc2c2ccccc12
dose: 12.5 mg/kg/injection, schedule: Q01DX001 (ip), vehicle: saline with Tween-80
  T/C: 97 % of control
dose: 25.0 mg/kg/injection, schedule: Q01DX001 (ip), vehicle: saline with Tween-80
  T/C: 100 % of control and 117 % of control
[6]
  T/C: 105 % of control

## c1ccc2c(c1)CC1C2ON2CCc3ccccc3C12 (stereo not drawn)
[7]
  T/C: 91 % of control
[8]
  T/C: 97 % of control
dose: 400.0 mg/kg/injection, schedule: Q01DX009 (ip), vehicle: saline with Tween-80
  T/C: 109 % of control

## CC(=O)SCCNCCNC1CC2CCC1C2 (stereo not drawn)
dose: 5.75 mg/kg/injection, schedule: Q01DX009 (ip), vehicle: saline
  T/C: 104 % of control
dose: 11.5 mg/kg/injection, schedule: Q01DX009 (ip), vehicle: saline
  T/C: 104 % of control

## COc1ccc(CNc2cc(C(O)CNC(C)(C)C)ccc2O)cc1 (stereo not drawn)
dose: 6.25 mg/kg/injection, schedule: Q01DX009 (ip), vehicle: saline with Tween-80
  T/C: 105 % of control
dose: 12.5 mg/kg/injection, schedule: Q01DX009 (ip), vehicle: saline with Tween-80
  T/C: 102 % of control
[9]
  T/C: 114 % of control

## CN1CCN(C)P1c1ccccc1
[10]
  T/C: 109 % of control
[7]
  T/C: 112 % of control
[8]
  T/C: 110 % of control

## CCCC/C(C=O)=C\NC(=O)Nc1ccccc1
dose: 50.0 mg/kg/injection, schedule: Q04DX002 (ip), vehicle: saline with Tween-80
  T/C: 100 % of control
dose: 100.0 mg/kg/injection, schedule: Q04DX002 (ip), vehicle: saline with Tween-80
  T/C: 90 % of control
[11]
  T/C: 98 % of control

## CCOS(=O)(=O)c1ccc([N+](=O)[O-])cc1[N+](=O)[O-]
dose: 50.0 mg/kg/injection, schedule: Q01DX001 (ip), vehicle: saline
  T/C: 95 % of control
dose: 100.0 mg/kg/injection, schedule: Q01DX001 (ip), vehicle: saline
  T/C: 104 % of control
dose: 200.0 mg/kg/injection, schedule: Q01DX001 (ip), vehicle: saline
  T/C: 118 % of control

## C(=Nc1ccc(-c2ccccc2)cc1)c1ccccc1
[3]
  T/C: 100 % of control
[4]
  T/C: 100 % of control
[5]
  T/C: 100 % of control

## CC(=O)C(O)c1c(O)cc(C)[nH]c1=O (stereo not drawn)
[10]
  T/C: 100 % of control
[7]
  T/C: 97 % of control
[8]
  T/C: 98 % of control

## O=S(=O)(CBr)N1CCOCC1
[6]
  T/C: 95 % of control
[12]
  T/C: 100 % of control
[13]
  T/C: 108 % of control

## CCCSc1ccc([N+](=O)[O-])cc1
[11]
  T/C: 93 % of control
dose: 400.0 mg/kg/injection, schedule: Q04DX002 (ip), vehicle: saline with Tween-80
  T/C: 101 % of control

## O=C1N2CCOC2=NC1(c1ccccc1)c1ccccc1
dose: 12.5 mg/kg/injection, schedule: Q01DX009 (ip), vehicle: water
  T/C: 94 % of control
dose: 25.0 mg/kg/injection, schedule: Q01DX009 (ip), vehicle: water
  T/C: 100 % of control
dose: 50.0 mg/kg/injection, schedule: Q01DX009 (ip), vehicle: water
  T/C: 94 % of control
dose: 100.0 mg/kg/injection, schedule: Q01DX009 (ip), vehicle: water
  T/C: 94 % of control

## O=C(Nc1ccc(Cl)cc1)O/N=C/c1ccccn1
[12]
  T/C: 95 % of control
[13]
  T/C: 104 % of control
dose: 400.0 mg/kg/injection, schedule: Q01DX001 (ip), vehicle: saline with Tween-80
  T/C: 90 % of control

## CC12CCC(CC1)C(C)(C)O2
[1]
  T/C: 106 % of control
[2]
  T/C: 117 % of control
dose: 100.0 mg/kg/injection, schedule: Q01DX009 (ip), vehicle: saline
  T/C: 106 % of control
[14]
  T/C: 107 % of control

## OC(CCl)Cc1ccccc1 (stereo not drawn)
[9]
  T/C: 109 % of control
[10]
  T/C: 109 % of control

## CCCCCCCCC(O)CCCCC (stereo not drawn)
[15]
  T/C: 108 % of control
[16]
  T/C: 87 % of control
[17]
  T/C: 95 % of control

## COc1ccc2c(c1)C1CN(Cc3ccccc31)C2 (stereo not drawn)
[6]
  T/C: 96 % of control
[12]
  T/C: 99 % of control
[13]
  T/C: 89 % of control

## C(=N\N=C\c1c[nH]c2ccccc12)/c1c[nH]c2ccccc12
dose: 100.0 mg/kg/injection, schedule: Q01DX009 (ip), vehicle: gum acacia
  T/C: 89 % of control
dose: 100.0 mg/kg/injection, schedule: Q04DX003 (ip), vehicle: gum acacia
  T/C: 108 % of control
dose: 200.0 mg/kg/injection, schedule: Q01DX009 (ip), vehicle: gum acacia
  T/C: 89 % of control
dose: 200.0 mg/kg/injection, schedule: Q04DX003 (ip), vehicle: gum acacia
  T/C: 95 % of control
dose: 400.0 mg/kg/injection, schedule: Q01DX009 (ip), vehicle: gum acacia
  T/C: 96 % of control
dose: 400.0 mg/kg/injection, schedule: Q04DX003 (ip), vehicle: gum acacia
  T/C: 100 % of control

## NC1=C(c2ccccc2)C(=O)c2ccccc21
[15]
  T/C: 104 % of control
[16]
  T/C: 109 % of control
[17]
  T/C: 109 % of control

## C=C(Cl)CSCCCS
dose: 130.0 mg/kg/injection, schedule: Q01DX009 (ip), vehicle: saline
  T/C: 95 % of control
[14]
  T/C: 104 % of control
dose: 300.0 mg/kg/injection, schedule: Q01DX009 (ip), vehicle: saline
  T/C: 118 % of control

## Cc1cc(O)c2c(c1)C(c1ccc3cc4c(c(O)c3c1O)C(=O)CC(C)(O)C4)c1cccc(O)c1C2=O (stereo not drawn)
dose: 0.09 mg/kg/injection, schedule: Q01DX009 (ip), vehicle: olive oil, sesame oil, peanut oil
  T/C: 102 % of control
dose: 0.19 mg/kg/injection, schedule: Q01DX009 (ip), vehicle: olive oil, sesame oil, peanut oil
  T/C: 100 % of control
dose: 0.39 mg/kg/injection, schedule: Q01DX009 (ip), vehicle: olive oil, sesame oil, peanut oil
  T/C: 102 % of control
dose: 0.78 mg/kg/injection, schedule: Q01DX009 (ip), vehicle: olive oil, sesame oil, peanut oil
  T/C: 106 % of control
